US8901337B2, “Metal complexes having dual histone deacetylase inhibitory and DNA-binding activity” (Royal College of Surgeons in Ireland, priority 2009, dated 2014)

Columns and labels:
A2780 cisR cells = experiment: Morphological analysis (methylene blue/eosin and DAPI staining), A2780 cisR; type: cell-based, human; details: IC50 and IC75, 72 hr
Description: (§1) Preparations of A2780 P and A2780-cisR cells were exposed to test agents for 72 hr and stained with methylene blue and eosin^19. Drug-treated cells were grown in petri dishes, washed once with PBS, once with PBS:methanol (1:1, v/v), and then fixed in 100% (v/v) methanol for 10 min. Following fixation, cell monolayers were rinsed with anhydrous methanol and stained with methylene blue and eosin for 2 min. Monolayers were then agitated for a further 2 min, destained by rinsing under a gentle stream of water and then finally rinsed with distilled water. Phase contrast microscopy was carried out using a Ceti-phase contrast microscope.
(§2) Drug-treated cells were also stained using a DNA-binding agent commonly used to stain nuclei and visualise nuclear morphology and DNA condensation, namely 4,6-diamidino-2-phenylindole (DAPI). Briefly, a monolayer of drug-treated cells was washed in PBS and fixed with 4% (w/v) paraformaldehyde for 30 min at room temperature. These cells were then permeabilized with 0.2% (v/v) Triton X in PBS and incubated with 1 μg/ml of DAPI for 30 min. Cells were again washed three times with PBS and viewed using a fluorescent microscope with 340/380 nm excitation filter at 250× magnification. Apoptotic cells were confirmed by identification of intensely stained, fragmented nuclei and condensed chromatin.

A2780 P cells = experiment: Morphological analysis (methylene blue/eosin and DAPI staining), A2780 P; type: cell-based, human; details: IC50 and IC75, 72 hr
Description: as §1, §2

[1] = system: A2780 cisR (cisplatin resistant ovarian cancer cells); experiment: Cellular uptake of Pt (FAAS), A2780 cisR; type: cell-based, human; details: 10 μM, 24 hours treatment
DNA in A2780 P cells = experiment: Pt binding to DNA in cultured cells (ICP-MS), A2780 P; type: cell-based, human; details: 4 hours of cell treatment; for DNA-bound Pt in A2780 P: 40 μM of Pt complexes
Description: Pt DNA binding of Pt complexes was measured in SW480 cells (colon cancer) and CH1 cells (lymphoma) or alternatively A2780 P and A2780 cisR cells (sensitive and resistant to cisplatin respectively). The cells were seeded in 60 mm tissue culture dishes with 10 ml of their respective medium. After overnight incubation the medium was removed and replaced with 10 ml of the respective medium containing a platinum complex giving a final concentration of 43 or 40 μM depending on the experiment. The cells were incubated with a given Pt complex for either 2 or 4 h depending on the experiment. The cells were trypsinised and centrifuged. The supernantant was removed and the cells washed twice with 1×PBS and centrifuged. The pellet was re-suspended in DNA buffer to which Proteinase K (20 mg/mL) and 10% SDS were added. After a gentle shake and incubation at 45° C. for two hours, RNAse (100 mg/mL) was added and the cells were incubated at 37° C. overnight. The volume of supernatant was noted and an equal volume of phenol was added.
The resulting mixture was shook for 10 min, then centrifuged for 10 min at 10° C. The supernatant was transferred into a new centrifuge tube (15 ml) and the volume was noted. To this was added an equal volume of phenol and chloroform/isoamylalcohol (24:1). The resulting mixture was shook for 10 min, then centrifuged for 10 min at 10° C. (3000 RPM). The supernatant was transferred into a new centrifuge tube (15 mL) and the volume was noted. To this was added an equal volume of chloroform. The resulting mixture was shook for 10 min, then centrifuged for 10 min at 10° C. The supernatant was transferred into a new centrifuge tube (15 mL) and the volume was noted. To this was added a volume that is 1/10 of the supernatant of 3 M sodium acetate (Ph 5.2) and three times the volume of cold 100% isopropanol (from freezer). The solution was shook gently until the DNA is precipitated. […] The absorbance of the DNA by was measured by UV spectrophotometry at 260 nm and 280 nm and the concentration of DNA calculated. Platinum bound to DNA was determined by ICP-MS.

cell line (CH1) = experiment: MTS in vitro cytotoxicity, CH1; type: cell-based; details: 72 hours, Table 1, read-out: IC50 values against CH1
Description: (§3) All cells were kept in a humidified atmosphere with 5% CO2 at 37° C.; cells from confluent monolayers were removed from flasks by trypsin/EDTA solution and their viability determined by the trypan blue exclusion test.
(§4) Cell growth was determined by the [3-(4,5-dimethylthiazol-2-yl)-5-(3-carboxymethoxyphenyl)-2-(4-sulfophenyl)-2H-tetrazolium, inner salt, (MTS test, Promega, Southampton, UK), a colorimetric assay based on the ability of the viable cells to reduce a soluble yellow tetrazolium salt to blue formazan. 10,000 ovarian cancer cells or 3,000 fibroblast cells for example were seeded per well onto 96-well plates in 100 μl of the appropriate culture medium. 24 hr after sowing the cells, the media was removed and the cells were treated by adding 100 μl of the compound media solutions at the appropriate concentrations. cis-[Pt(NH3)2(malSAHA−2H)], cisplatin and cis-[Pt(NH3)2(mal)] were prepared freshly in cell culture media. […] The maximum percentage of dmso present in any well was less than 0.1% (v/v). cis-[Pt(NH3)2(malBel—2H)], belinostat and malbelinostat were freshly prepared in dimethyl formamide (DMF) and diluted in culture media prior to the MTS assay. The maximum percentage of DMF present in any well was 0.5% (v/v). A range of concentrations between 1 μM and 100 μM was used.
(§5) After 72 hr of treatment, 20 μl of the MTS reagent was added to each well and the plates incubated for 2 hr at 37° C. […] The percentages of surviving cells relative to untreated controls were determined.

[2] = system: lung cancer cell line (A549); experiment: MTS in vitro cytotoxicity, A549; type: cell-based; details: 72 hours, Table 1, read-out: IC50 values against A549
Description: as §3, §4, §5

[3] = system: colon cancer cell line (SW480); experiment: MTS in vitro cytotoxicity, SW480; type: cell-based; details: 72 hours, Table 1, read-out: IC50 values against SW480
Description: as §3, §4, §5

[4] = system: SW480 (colon cancer cells); experiment: Cellular uptake of Pt (FAAS), SW480; type: cell-based; details: 10 μM, 72 hours treatment
Description: (§6) Cellular uptake of Pt compounds was measured in SKBR, SW480, A549, A2780P and CH1 cells. The cells were seeded in 60 mm tissue culture dishes with 10 mL of their respective medium and after overnight incubation, the cells were treated with the Pt complexes for 72 h at 10 μM concentration. The cell monolayers at the end of the incubation with the Pt complexes were washed (twice) with ice-cold phosphate buffered saline (PBS), trypsinized and harvested into cold (4° C.) PBS. Cell suspensions were centrifuged and the pellets were stored in PBS at −80° C. until assayed. Afterward, the pellets were digested by high pressure microwave mineralization and Pt content was determined by flameless atomic absorption spectrophotometry (FAAS). The results of cellular Pt uptake were corrected for adsorption effects. All experiments were made in triplicate.^17

CH1 (cancer cells) = experiment: Cellular uptake of Pt (FAAS), CH1; type: cell-based; details: 10 μM, 72 hours treatment
Description: as §6

Row | Compound | cellular morphology and integrity of DNA (A2780 cisR cells) | cellular morphology and integrity of DNA (A2780 P cells) | Uptake of Pt complexes into A2780 cisR [1] [pmol Pt/2 × 10^6 cell] | DNA-bound Pt in A2780 P (DNA in A2780 P cells) | DNA binding in A2780 P compared with cisplatin (in words) (DNA in A2780 P cells) | IC50 (cell line (CH1)) [µM] | IC50 [2] [µM] | IC50 [3] [µM] | Uptake of Pt complexes into SW480 [4] [pmol Pt/2 × 10^6 cell] | Uptake of Pt complexes into CH1 (CH1 (cancer cells)) [pmol Pt/2 × 10^6 cell]
1 | [NH2][Pt]1([NH2])[O]C(=O)C(Cc2ccc(NS(=O)(=O)c3ccc(/C=C/C(=O)NO)cc3)cc2)C(=O)[O]1 [cis-[Pt(NH3)2(malBel−2H)], cis-[Pt(NH3)2(malBel−2H)].1.5H2O] | considerable thinning of the monolayer, attenuation of cells and the nuclei to be intensively stained and fragmented | considerable thinning of the monolayer, attenuation of cells and the nuclei to be intensively stained and fragmented | 42.3 ± 5.3 | 5,175 · 10^−15 ± 27 moles of Pt/μg of DNA | binds DNA in A2780 P and A2780 cisR cancer cells and to a greater extent than cisplatin | – | – | – | – | –
2 | N.N.[Cl][Pt][Cl] [cisplatin, cis-[Pt^II(NH3)2Cl2], reference compound] | considerable thinning of the monolayer, attenuation of cells and the nuclei to be intensively stained and fragmented | considerable thinning of the monolayer, attenuation of cells and the nuclei to be intensively stained and fragmented | 98 ± 11 | 200 · 10^−15 ± 60 moles of Pt/μg of DNA | – | 1 ± 0.5 | 6.3 ± 0.1 | 8 ± 0.3 | 391.95 ± 51.95 | 145.4 ± 21.8
3 | [NH2][Pt]1([NH2])[O]C(=O)C(Cc2ccc(NC(=O)CCCCCCC(=O)NO)cc2)C(=O)[O]1 [cis-[Pt(NH3)2(malSAHA−2H)], cis-[Pt(NH3)2(malSAHA−2H)].3H2O] | – | – | – | – | – | 3.8 ± 0.5 | 12.7 ± 1.8 | 13.4 ± 3.9 | 5422 ± 222 | 1595 ± 158
